These results are taken from US11242539B2, “Elite event EE-GM4 and methods and kits for identifying such event in biological samples” (priority 2016, dated 2022).

The test system of the data set is soybean plants containing event EE-GM4. Kind of data set: HPPD inhibitor herbicide tolerance field trials (maximum phytotoxicity). Particulars: for average maximum phytotoxicity value: several field trials across 2 years; for tolerance of plants with EE-GM4 to herbicide: field. The data set is classed as in vivo, Glycine max. The text has this:
Numbers in ( ) below a treatment give the number of trials included in the bar, the number on top of each bar gives the average maximum phytotoxicity value for that treatment. Treatments applied were: IFT=isoxaflutole, MST=mesotrione, PE=pre-emergence, PO=post-emergence (at V2-V3 stage, with adjuvants crop oil concentrate and ammonium sulfate added to increase herbicide activity). Rates shown are in gram active ingredient/hectare (4× dose in pre-emergence, 2× dose in post-emergence).
Tolerance of plants comprising EE-GM4 to HPPD inhibitor herbicides was tested at different locations in the field over 2 years. […] All post-emergence treatments were at the V2-V3 stage, with adjuvants crop oil concentrate and ammonium sulfate added to increase herbicide activity.
The “maximum phytotoxicity” as used herein is the highest phytotoxicity rating recorded at any observation during the duration of a trial (with 3 to 4 observations per trial). In existing weed control applications, a normal (lx) dose for isoxaflutole (IFT) in pre- or post-emergence application and for MST in post-emergence application is 105 gr/ha, and a normal (1×) dose for mesotrione in pre-emergence application is 210 gr/ha.
Also, in several field trials across 2 years, soybean plants with event EE-GM4 had good tolerance towards experimental HPPD inhibitor compound 2-methyl-N-(5-methyl-1,3,4-oxadiazol-2-yl)-3-(methylsulfonyl)-4-(trifluoromethyl)benzamide (U.S. Pat. No. 9,101,141) when applied pre-emergence at 400 gr ai/ha or post-emergence at 200 gr ai/ha, respectively (the average maximum phytotoxicity value for each treatment was below 20%). […] All post-emergence treatments were at the V2-V3 stage, with adjuvants crop oil concentrate and ammonium sulfate added to increase herbicide activity.

Where [1] appears, read: applied post-emergence at V2-V3 stage with crop oil concentrate and ammonium sulfate, over 2 years.
[2] abbreviates: applied pre-emergence, different locations over 2 years.

Turning to `CSc1c(C(F)(F)F)ccc(C(=O)Nc2nnnn2C)c1Cl` [2-chloro-3-(methylsulfanyl)-N-(1-methyl-1H-tetrazol-5-yl)-4-(trifluoromethyl)benzamide], the average maximum phytotoxicity (post-emergence at 100-150 gr ai/ha, V2-V3 stage with adjuvants) is reported as 30%. Consider `Cc1nnc(NC(=O)c2ccc(C(F)(F)F)c(S(C)(=O)=O)c2C)o1` [2-methyl-N-(5-methyl-1,3,4-oxadiazol-2-yl)-3-(methylsulfonyl)-4-(trifluoromethyl)benzamide], for which the “average maximum phytotoxicity value” by setting is: (post-emergence at 200 gr ai/ha, V2-V3 stage with adjuvants) “below 20%”; (pre-emergence at 400 gr ai/ha) “below 20%”. Regarding `CS(=O)(=O)c1cc(C(F)(F)F)ccc1C(=O)c1cnoc1C1CC1` [isoxaflutole, (5-cyclopropyl-4-isoxazolyl)[2-(methylsulfonyl)-4-(trifluoromethyl)phenyl]methanone], the “tolerance of plants with EE-GM4 to herbicide” value is, setting by setting: under setting [1], “crop damage was a bit higher”; under setting [2], “commercially relevant tolerance”.

As for `CS(=O)(=O)c1ccc(C(=O)C2C(=O)CCCC2=O)c([N+](=O)[O-])c1` [mesotrione, 2-[4-(Methylsulfonyl)-2-nitrobenzoyl]cyclohexane-1,3-dione], the “tolerance of plants with EE-GM4 to herbicide” value is “commercially relevant tolerance” under setting [1] and “commercially relevant tolerance” under setting [2].
